We go through 4 compounds from patent US20260034044A1, “A PRESERVATIVE COMPOSITION” (AnalytiCon Discovery - Zweigniederlassung der BRAIN Biotech …, priority 2022, published 2026).

Holding throughout (experiment): Antimicrobial activity (MIC)
Holding throughout (type): cell-based

The subject of assay [1] is Aspergillus brasiliensis DSM 1988. The settings on record: DSM1988, potato dextrose broth pH 3.8, visual evaluation, read-out: Minimal Inhibitory Concentration (MIC).
Assay [2] deals with Byssochlamys fulva DSM 1808. As to conditions: Paecilomyces fulvus, DSM1808, potato dextrose broth pH 3.8, visual evaluation, read-out: Minimal Inhibitory Concentration (MIC).
Assay [3] has as its system Clostridium sporogenes ATCC 19404. As to conditions: ATCC19404, potato dextrose broth pH 3.8, visual evaluation, read-out: Minimal Inhibitory Concentration (MIC). As for the experimental part: Compounds are dissolved at a concentration of 20 mg/ml using 100% DMSO. • Preculture: yeast and bacteria are plated on potato dextrose agar, resuspended in potato dextrose broth and CFU via OD measurement determined; adjusting CFU of the strain in PDB pH 3.8. • Preculture: for mycel forming fungi spores were directly used after thawing of cryopreserved stocks of known titre. • Final titre used for the assay: Yeast strains 5*10^3 CFU/ml, Bacteria 1*10^6 CFU/ml, Fungi (spores) 5*10^4 CFU/ml • Potato dextrose broth pH 3.8 was used as assay matrix • 500 ppm (0.05%) of the compounds were screened (final DMSO 2.5% (v/v)) • Volume: 100 μl in 96-well format • Positive controls: potassium sorbate, sodium benzoate & triclosan • 28° C. to 30° C., static incubation • Incubation time depending on spoilage organism between 2 and 8 days • Visual evaluation (per eye, for fungi with binocular magnification) Antimicrobial activities are reported in Table 1.

Assay [4] concerns Fusobacterium nucleatum subsp. vincentii DSM 19507. The settings on record: DSM19507, potato dextrose broth pH 3.8, visual evaluation, read-out: Minimal Inhibitory Concentration (MIC).
Assay [5] has as its system Lactobacillus plantarum ssp. plantarum DSM 20174. The settings on record: Lactiplantibacillus plantarum, DSM20174, potato dextrose broth pH 3.8, visual evaluation, read-out: Minimal Inhibitory Concentration (MIC).
Assay [6] relates to Penicillium expansum DSM 62841. As to conditions: DSM62841, potato dextrose broth pH 3.8, visual evaluation, read-out: Minimal Inhibitory Concentration (MIC).
In assay [7] the test system is Pseudomonas aeruginosa DSM 1117. The settings on record: DSM1117, potato dextrose broth pH 3.8, visual evaluation, read-out: Minimal Inhibitory Concentration (MIC).
The test system of assay [8] is Salmonella enterica ssp. enterica Ser. typhimurium DSM 17058. The settings on record: potato dextrose broth pH 3.8, visual evaluation, read-out: Minimal Inhibitory Concentration (MIC).
Assay [9] has as its system Streptococcus mutans DSM 20523. As to conditions: DSM20523, potato dextrose broth pH 3.8, visual evaluation, read-out: Minimal Inhibitory Concentration (MIC).
Assay [10] deals with Yarrowia lipolytica DSM 70561. As to conditions: DSM70561, potato dextrose broth pH 3.8, visual evaluation, read-out: Minimal Inhibitory Concentration (MIC).

The structures appear in SMILES notation. Values after ≈ are worked out from the molar mass of the structure shown. Bounds are passed on as bounds.

With `C[C@H]1CC[C@@]2(OC1)O[C@H]1CC3C4CC[C@H]5C[C@@H](O[C@@H]6O[C@H](CO)[C@H](O[C@@H]7O[C@H](CO)[C@@H](O)[C@H](O[C@@H]8OC[C@@H](O)[C@H](O)[C@H]8O)[C@H]7O[C@@H]7O[C@H](CO)[C@@H](O)[C@H](O)[C@H]7O)[C@H](O)[C@H]6O)[C@H](O)C[C@]5(C)C4=CC(=O)[C@]3(C)[C@H]1[C@@H]2C` (stereo partly shown) [A], the MIC in [1] was > 80 µg/mL; in assay [2], > 80 µg/mL; in [3] it was 80 µg/mL (≈ 75.2 µM); in [4], 80 µg/mL (≈ 75.2 µM); in assay [5], 40 µg/mL (≈ 37.6 µM); in [6], > 500 µg/mL. Besides, the MIC in assay [7], in [8], in assay [9] and in [10] was > 80 µg/mL throughout.

For the compound `CC1CC[C@@]2(OC1)O[C@H]1CC3C4CC=C5C[C@@H](O[C@@H]6O[C@H](CO)[C@@H](O[C@@H]7O[C@@H](C)[C@H](O)[C@@H](O)[C@H]7O)[C@H](O)[C@H]6O[C@@H]6O[C@@H](C)[C@H](O)[C@@H](O)[C@H]6O)CC[C@]5(C)C4CC[C@]3(C)[C@@]1(O)[C@@H]2C` (stereo partly shown) [C], the MIC was > 80 µg/mL in assay [1]; > 80 µg/mL in [2]; 80 µg/mL (≈ 90.4 µM) in [3]; > 80 µg/mL in assay [4]; 400 µg/mL (≈ 452 µM) in assay [5]; > 500 µg/mL in assay [6]. The MIC in assay [7], in assay [8], in assay [9] and in [10] was > 80 µg/mL throughout.

With `C[C@H]1CC[C@@]2(OC1)O[C@H]1CC3C4CC[C@H]5C[C@@H](O[C@@H]6O[C@H](CO)[C@H](O[C@@H]7O[C@H](CO)[C@@H](O)[C@H](O)[C@H]7O[C@@H]7O[C@H](CO)[C@@H](O)[C@H](O)[C@H]7O)[C@H](O)[C@H]6O)[C@H](O)C[C@]5(C)C4=CC(=O)[C@]3(C)[C@H]1[C@@H]2C` (stereo partly shown) [D], the MIC is > 80 µg/mL in assay [1]; > 80 µg/mL in assay [2]; 80 µg/mL (≈ 85.9 µM) in assay [3]; 80 µg/mL (≈ 85.9 µM) in assay [4]; 40 µg/mL (≈ 43 µM) in assay [5]; > 500 µg/mL in [6]. Further, the MIC in [7], in assay [8], in assay [9] and in assay [10] was > 80 µg/mL in each case.

`C[C@@H]1CC[C@@]2(OC1)O[C@H]1CC3C4CC=C5CC(O[C@@H]6O[C@H](CO)[C@@H](O[C@@H]7O[C@@H](C)[C@H](O[C@@H]8O[C@@H](C)[C@H](O)[C@@H](O)[C@H]8O)[C@@H](O)[C@H]7O)[C@H](O)[C@H]6O[C@@H]6O[C@@H](C)[C@H](O)[C@@H](O)[C@H]6O)CC[C@]5(C)C4CC[C@]3(C)[C@@]1(O)[C@@H]2C` (stereo partly shown) [B]: the MIC was > 80 µg/mL in [1]; > 80 µg/mL in assay [2]; 80 µg/mL (≈ 77.6 µM) in assay [3]; > 80 µg/mL in assay [4]; 400 µg/mL (≈ 388 µM) in assay [5]; > 500 µg/mL in assay [6]. The MIC in assay [7], in [8], in assay [9] and in assay [10] was > 80 µg/mL throughout.
